Laboratory results: EPA's ToxRefDB 2

What was measured:
rat [1] = conditions: Subchronic oral toxicity in rodents, fischer, Feed, dose end: 13 week, group: systemic
mouse [2] = conditions: Subchronic oral toxicity in rodents, b6c3f1, Feed, dose end: 13 week, group: systemic, systemic / in life observation / body weight / body weight gain
rat [3] = conditions: Prenatal developmental toxicity study; sprague dawley; Oral; Gavage/Intubation; dose end: 20 GD; group: maternal; systemic / in life observation / body weight / body weight gain
rat [4] = conditions: Chronic toxicity, sprague dawley, Oral, Gavage/Intubation, dose end: 53 week, group: systemic
mouse [5] = conditions: Carcinogenicity, cd1, Oral, Feed, dose end: 18 month, group: systemic
dog [6] = conditions: Subchronic oral toxicity in nonrodent, beagle, Feed, dose end: 90 day, group: systemic
dog [7] = conditions: Chronic toxicity; beagle; Oral; Feed; dose end: 52 week; group: systemic; systemic / clinical chemistry / bilirubin / total bilirubin + systemic / hematology / erythrocyte (rbc) count differential / erythrocyte (…
rat [8] = conditions: Subchronic oral toxicity in rodents, sprague dawley, Feed, dose end: 13 week, group: systemic
mouse [9] = conditions: Subchronic oral toxicity in rodents, cd1, Feed, dose end: 90 day, group: systemic
rat [10] = conditions: Multigenerational reproductive toxicity study, sprague dawley, Oral, Feed, dose end: 2 generation
rat [11] = conditions: Combined chronic toxicity/carcinogenicity, sprague dawley, Oral, Feed, dose end: 24 month, group: systemic
[12] = systemic / in life observation / body weight / body weight gain + systemic / pathology microscopic / bone marrow / depletion + systemic / …
[13] = systemic / in life observation / body weight / body weight gain + systemic / pathology microscopic / bone marrow / hyperplasia + systemic / …
[14] = systemic / clinical chemistry / alkaline phosphatase (alp/alk) / alkaline phosphatase (alp/alk) + systemic / clinical chemistry / aspartate …
[15] = systemic / hematology / monocytes / monocytes + systemic / in life observation / clinical signs / salivation
[16] = systemic / in life observation / mortality / mortality
[17] = systemic / hematology / heinz body / heinz body + systemic / hematology / hematocrit (hct) / hematocrit (hct) + systemic / hematology / …
[18] = systemic / urinalysis / appearance and color / appearance and color
[19] = systemic / hematology / erythrocyte (rbc) count differential / erythrocyte (rbc) + systemic / hematology / hemoglobin (hgb) / hemoglobin (…
[20] = systemic / in life observation / body weight / body weight gain
[21] = systemic / in life observation / body weight / body weight gain + systemic / clinical chemistry / alkaline phosphatase (alp/alk) / alkaline …
[22] = group: offspring, developmental / offspring survival late / viability index / viability index
[23] = group: parental, systemic / pathology microscopic / spleen / pigmentation
[24] = group: parental, systemic / pathology microscopic / spleen / pigmentation + systemic / in life observation / body weight / body weight + systemic / in life …
[25] = group: reproductive, reproductive / offspring survival early / birth index / live birth index
[26] = systemic / hematology / erythrocyte (rbc) count differential / erythrocyte (rbc) + systemic / hematology / hematocrit (hct) / hematocrit (…

SMILES: O=C1O[C@H]([C@@H](O)CO)C(O)=C1O [L-Ascorbic acid]
- LOAEL (rat [1]; [12]): 5000 mg/kg/day
- NOAEL (rat [1]; [12]): 2500 mg/kg/day
- LEL (rat [1]; [13]): 1250 mg/kg/day
- NEL (rat [1]; [13]): < 1250 mg/kg/day
- LEL (mouse [2]): 7500 mg/kg/day
- LOAEL (mouse [2]): 7500 mg/kg/day
- NEL (mouse [2]): 3750 mg/kg/day
- NOAEL (mouse [2]): 3750 mg/kg/day

SMILES: CO[C@@H]1COCC[C@@H]1[NH2+][C@@H]1CC[C@@](C(=O)N2CCc3ncc(C(F)(F)F)cc3C2)(C(C)C)C1.O=C([O-])CCC(=O)O [MK-812]
- LEL (rat [3]): 30 mg/kg/day
- LOAEL (rat [3]): > 30 mg/kg/day
- NEL (rat [3]): 10 mg/kg/day
- NOAEL (rat [3]): ≥ 30 mg/kg/day
- LOAEL (rat [4]; [14]): > 80 mg/kg/day
- NOAEL (rat [4]; [14]): ≥ 80 mg/kg/day
- LEL (rat [4]; [15]): 5 mg/kg/day
- NEL (rat [4]; [15]): < 5 mg/kg/day

SMILES: CCc1ccc(C(=O)NN(C(=O)c2cc(C)cc(C)c2)C(C)(C)C)cc1 [Tebufenozide]
- LEL (mouse [5]; [16]): 0.8 mg/kg/day
- NEL (mouse [5]; [16]): < 0.8 mg/kg/day
- LOAEL (mouse [5]; systemic / in life observation / mortality / mortality + systemic / pathology microscopic / spleen / pigmentation + systemic / organ weight…): 78 mg/kg/day
- NOAEL (mouse [5]; systemic / pathology microscopic / spleen / pigmentation + systemic / organ weight / spleen / absolute): 7.8 mg/kg/day
- LOAEL (dog [6]; [17]): 20.1 mg/kg/day
- NOAEL (dog [6]; [17]): 2.1 mg/kg/day
- LEL (dog [6]; [18]): 2.1 mg/kg/day
- NEL (dog [6]; [18]): < 2.1 mg/kg/day
- LEL (dog [7]): 7 mg/kg/day
- LOAEL (dog [7]): 7 mg/kg/day
- NEL (dog [7]): 1.6 mg/kg/day
- NOAEL (dog [7]): 1.6 mg/kg/day
- LOAEL (rat [8]; [19]): 133 mg/kg/day
- NEL (rat [8]; [19]): 1.3 mg/kg/day
- NOAEL (rat [8]; [19]): 13.1 mg/kg/day
- LEL (rat [8]; systemic / organ weight / testes / relative to body weight): 13.1 mg/kg/day
- LEL (mouse [9]; [20]): 35.3 mg/kg/day
- LOAEL (mouse [9]; [20]): 35.3 mg/kg/day
- NEL (mouse [9]; [21]): 3.4 mg/kg/day
- NOAEL (mouse [9]; [21]): 3.4 mg/kg/day
- LEL (rat [10]; [22]): 155 mg/kg/day
- LOAEL (rat [10]; [22]): > 155 mg/kg/day
- NEL (rat [10]; [22]): 11.5 mg/kg/day
- NOAEL (rat [10]; [22]): ≥ 155 mg/kg/day
- LEL (rat [10]; [23]): 11.5 mg/kg/day
- LOAEL (rat [10]; [23]): 11.5 mg/kg/day
- NEL (rat [10]; [24]): 0.8 mg/kg/day
- NOAEL (rat [10]; [24]): 0.8 mg/kg/day
- LEL (rat [10]; [25]): 155 mg/kg/day
- LOAEL (rat [10]; [25]): 155 mg/kg/day
- NEL (rat [10]; [25]): 11.5 mg/kg/day
- NOAEL (rat [10]; [25]): 11.5 mg/kg/day
- LOAEL (rat [11]; [26]): 48 mg/kg/day
- NOAEL (rat [11]; [26]): 5 mg/kg/day
- LEL (rat [11]; systemic / pathology gross / ovary / cyst): 6 mg/kg/day
- NEL (rat [11]; systemic / pathology gross / ovary / cyst + systemic / organ weight / adrenal gland / relative to body weight + systemic / organ weight / …): 0.6 mg/kg/day
